# Assay results published in patent publication US8530490B2, “Uracil compound or salt thereof having human deoxyuridine triphosphatase inhibitory activity” (Taiho Pharmaceutical Co., Ltd., priority 2008, dated 2013).
# Target: human dUTPase (Homo sapiens (Human), UniProt P33316)
# Test: Human dUTPase inhibitory effect: production of [5-3H]dUMP from [5-3H]dUTP, measured by HPLC with flow scintillation
# Type: biochemical
# Settings: [5-3H]dUMP production from [5-3H]dUTP, 37° C., 15 minutes
# Experimental: The inhibitory activity of the compound of the present invention against human dUTPase was determined by measuring the production of [5-^3H]deoxyuridine monophosphate (hereinafter, referred to as [5-^3H]dUMP) from [5-^3H]deoxyuridine triphosphate (hereinafter, referred to as [5-^3H]dUTP) according to a method shown below.
# Specifically, 0.2 mL in total of a solution containing 0.02 mL of 1 μM dUTP (including 588 Bq/mL [5-3H]dUTP), 0.05 mL of a 0.2 M Tris buffer solution (pH 7.4), 0.05 mL of 16 mM magnesium chloride, 0.02 mL of 20 mM 2-mercaptoethanol, 0.02 mL of a 1% aqueous solution of fetal bovine serum-derived albumin, 0.02 mL of varying concentrations of test compound solutions or pure water as a control, and 0.02 mL of a solution of human dUTPase (expressed using E. coli and purified) was reacted at 37° C. for 15 minutes. Immediately after the reaction, the solution was heated at 100° C. for 1 minute to terminate the reaction, followed by centrifugation at 15000 rpm for 2 minutes. An aliquot (150 μL) of the supernatant thus obtained by centrifugation was analyzed using an Atlantis dC18 column (manufactured by Waters Corp., 4.6×250 mm) and a high-performance liquid chromatograph (manufactured by Shimadzu Corp., Prominence). Elution was performed at a flow rate of 0.8 mL/min for 30 minutes by a concentration gradient from a 4:6 mixed solution of a mobile phase A (10 mM potassium dihydrogen phosphate (pH 6.7), 10 mM tetrabutylammonium, and 0.25% methanol) and a mobile phase B (50 mM potassium dihydrogen phosphate (pH 6.7), 5.6 mM tetrabutylammonium, and 30% methanol) to the mobile phase B. The eluate was mixed with a scintillator (manufactured by PerkinElmer Co., Ltd., Ultima-Flo AP) at a 1:2 ratio, and the radioactivity of the produced [5-^3H]dUMP (RT 10.2 min) was measured using Radiomatic Flow Scintillation Analyzer (manufactured by PerkinElmer Co., Ltd., 525TR).
# The inhibitory activity of the test compound was determined according to the formula shown below.
# Chain of human dUTPase (P33316 94-252): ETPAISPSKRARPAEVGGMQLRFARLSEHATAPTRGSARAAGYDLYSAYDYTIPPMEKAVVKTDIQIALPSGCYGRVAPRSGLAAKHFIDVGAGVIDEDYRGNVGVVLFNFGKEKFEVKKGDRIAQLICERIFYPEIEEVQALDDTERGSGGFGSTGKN
row,IC50,SMILES
1,40 nM,"CC[C@@H](NS(=O)(=O)CCCOCn1ccc(=O)[nH]c1=O)c1cccc(OCC2CC2)c1 [Example 27, (R)—N-(1-(3-(cyclopropylmethoxy)phenyl)propyl)-3-((2,4-dioxo-3,4-dihydropyrimidin-1(2H)-yl)methoxy)propane-1-sulfonamide]"
2,360 nM,"CC(C)(NS(=O)(=O)CCCOCn1ccc(=O)[nH]c1=O)c1ccc(F)c(OCC2CC2)c1 [Example 28, N-(2-(3-(cyclopropylmethoxy)-4-fluorophenyl)propan-2-yl)-3-((2,4-dioxo-3,4-dihydropyrimidin-1(2H)-yl)methoxy)propane-1-sulfonamide]"
3,890 nM,"O=c1ccn(COCCCS(=O)(=O)NC(c2ccccc2)c2cccc(OCC3CCC3)c2)c(=O)[nH]1 (stereo not drawn) [Example 29, N-((3-(cyclobutylmethoxy)phenyl)(phenyl)methyl)-3-((2,4-dioxo-3,4-dihydropyrimidin-1(2H)-yl)methoxy)propane-1-sulfonamide]"
4,360 nM,"O=c1ccn(COCCCS(=O)(=O)NC(c2cccc(OCC3CC3)c2)C2CC2)c(=O)[nH]1 (stereo not drawn) [Example 30, N-(cyclopropyl(3-(cyclopropylmethoxy)phenyl)methyl)-3-((2,4-dioxo-3,4-dihydropyrimidin-1(2H)-yl)methoxy)propane-1-sulfonamide]"
5,330 nM,"CC(C)C(NS(=O)(=O)CCCOCn1ccc(=O)[nH]c1=O)c1cccc(OCC2CC2)c1 (stereo not drawn) [Example 31, N-(1-(3-(cyclopropylmethoxy)phenyl)-2-methylpropyl)-3-((2,4-dioxo-3,4-dihydropyrimidin-1(2H)-yl)methoxy)propane-1-sulfonamide]"
6,140 nM,"CC(NS(=O)(=O)CCCOCn1ccc(=O)[nH]c1=O)c1cccc(OC2CCCC2)c1 (stereo not drawn) [Example 32, N-(1-(3-(cyclopentyloxy)phenyl)ethyl)-3-((2,4-dioxo-3,4-dihydropyrimidin-1(2H)-yl)methoxy)propane-1-sulfonamide]"
7,1130 nM,"O=c1ccn(COCCCS(=O)(=O)NCc2cccc(OC3CC3)c2)c(=O)[nH]1 [Example 33, N-(3-cyclopropoxybenzyl)-3-((2,4-dioxo-3,4-dihydropyrimidin-1(2H)-yl)methoxy)propane-1-sulfonamide]"
8,30 nM,"CCC(NS(=O)(=O)CCCOCn1ccc(=O)[nH]c1=O)c1ccc(F)c(OCC2CC2)c1 (stereo not drawn) [Example 34, N-(1-(3-(cyclopropylmethoxy)-4-fluorophenyl)propyl)-3-((2,4-dioxo-3,4-dihydropyrimidin-1(2H)-yl)methoxy)propane-1-sulfonamide]"
9,1550 nM,"CC(C)[C@H](NS(=O)(=O)CCCOCn1ccc(=O)[nH]c1=O)c1ccc(F)c(OCC2CC2)c1 [Example 35, (S)—N-(1-(3-(cyclopropylmethoxy)-4-fluorophenyl)-2-methylpropyl)-3-((2,4-dioxo-3,4-dihydropyrimidin-1(2H)-yl)methoxy)propane-1-sulfonamide]"
10,150 nM,"CC(NS(=O)(=O)CCCOCn1ccc(=O)[nH]c1=O)c1ccc(F)c(OCC2CC2)c1 (stereo not drawn) [Example 36, N-(1-(3-(cyclopropylmethoxy)-4-fluorophenyl)ethyl)-3-((2,4-dioxo-3,4-dihydropyrimidin-1(2H)-yl)methoxy)propane-1-sulfonamide]"
11,100 nM,"O=c1ccn(COCCCS(=O)(=O)N[C@H](c2ccc(F)cc2)c2ccc(F)c(OCC3CC3)c2)c(=O)[nH]1 [Example 37, (R)—N-((3-(cyclopropylmethoxy)-4-fluorophenyl)(4-fluorophenyl)methyl)-3-((2,4-dioxo-3,4-dihydropyrimidin-1(2H)-yl)methoxy)propane-1-sulfonamide]"
12,30 nM,"O=c1ccn(COCCCS(=O)(=O)N[C@@H](c2ccc(F)c(OCC3CC3)c2)c2cccs2)c(=O)[nH]1 [Example 38, (S)—N-((3-(cyclopropylmethoxy)-4-fluorophenyl)(thiophen-2-yl)methyl)-3-((2,4-dioxo-3,4-dihydropyrimidin-1(2H)-yl)methoxy)propane-1-sulfonamide]"
13,280 nM,"O=c1ccn(COCCCS(=O)(=O)NC2(c3cccc(OCC4CC4)c3)CCCC2)c(=O)[nH]1 [Example 39, N-(1-(3-(cyclopropylmethoxy)phenyl)cyclopentyl)-3-((2,4-dioxo-3,4-dihydropyrimidin-1(2H)-yl)methoxy)propane-1-sulfonamide]"
14,100 nM,"O=c1ccn(COCCCS(=O)(=O)N[C@@H](c2ccc(F)c(OCC3CC3)c2)C2CC2)c(=O)[nH]1 [Example 40, (R)—N-(cyclopropyl (3-(cyclopropylmethoxy)-4-fluorophenyl)methyl)-3-((2,4-dioxo-3,4-dihydropyrimidin-1(2H)-yl)methoxy)propane-1-sulfonamide]"
15,40 nM,"CC[C@@H](NS(=O)(=O)CCCOCn1ccc(=O)[nH]c1=O)c1cccc(OC2CCCC2)c1 [Example 41, (R)—N-(1-(3-(cyclopentyloxy)phenyl)propyl)-3-((2,4-dioxo-3,4-dihydropyrimidin-1(2H)-yl)methoxy)propane-1-sulfonamide]"
16,330 nM,"O=c1ccn(COCCCS(=O)(=O)N[C@@H](c2cccc(OC3CCCC3)c2)C2CC2)c(=O)[nH]1 [Example 42, (R)—N-((3-(cyclopentyloxy)phenyl)(cyclopropyl)methyl)-3-((2,4-dioxo-3,4-dihydropyrimidin-1(2H)-yl)methoxy)propane-1-sulfonamide]"
17,90 nM,"CC[C@@H](NS(=O)(=O)CCCOCn1ccc(=O)[nH]c1=O)c1cccc(OC2CC2)c1 [Example 43, (R)—N-(1-(3-cyclopropoxyphenyl)propyl)-3-((2,4-dioxo-3,4-dihydropyrimidin-1(2H)-yl)methoxy)propane-1-sulfonamide]"
18,160 nM,"O=c1ccn(COCCCS(=O)(=O)NCc2ccc(F)c(OC3CCCC3)c2)c(=O)[nH]1 [Example 44, N-(3-(cyclopentyloxy)-4-fluorobenzyl)-3-((2,4-dioxo-3,4-dihydropyrimidin-1(2H)-yl)methoxy)propane-1-sulfonamide]"
19,2010 nM,"O=c1ccn(COCCCS(=O)(=O)NCc2cccc(OC3CCCCC3)c2)c(=O)[nH]1 [Example 45, N-(3-(cyclohexyloxy)benzyl)-3-((2,4-dioxo-3,4-dihydropyrimidin-1(2H)-yl)methoxy)propane-1-sulfonamide]"
20,2350 nM,"O=c1ccn(COCCCS(=O)(=O)NCc2cccc(OC3CCOCC3)c2)c(=O)[nH]1 [Example 46, 3-((2,4-dioxo-3,4-dihydropyrimidin-1(2H)-yl)methoxy)-N-(3-(tetrahydro-2H-pyran-4-yloxy)benzyl)propane-1-sulfonamide]"
21,210 nM,"C[C@@H](NS(=O)(=O)CCCOCn1ccc(=O)[nH]c1=O)c1cccc(OC2CCOCC2)c1 [Example 47, (R)-3-((2,4-dioxo-3,4-dihydropyrimidin-1(2H)-yl)methoxy)-N-(1-(3-(tetrahydro-2H-pyran-4-yloxy)phenyl)ethyl)propane-1-sulfonamide]"
22,140 nM,"C[C@@H](NS(=O)(=O)CCCOCn1ccc(=O)[nH]c1=O)c1ccc(F)c(OC2CCOCC2)c1 [Example 48, (R)-3-((2,4-dioxo-3,4-dihydropyrimidin-1(2H)-yl)methoxy)-N-(1-(4-fluoro-3-(tetrahydro-2H-pyran-4-yloxy)phenyl)ethyl)propane-1-sulfonamide]"
23,940 nM,"C[C@@H](NS(=O)(=O)CCCOCn1ccc(=O)[nH]c1=O)c1cccc(O[C@H]2CCOC2)c1 [Example 49, 3-((2,4-dioxo-3,4-dihydropyrimidin-1(2H)-yl)methoxy)-N—((R)-1-(3-((S)-tetrahydrofuran-3-yloxy)phenyl)ethyl)propane-1-sulfonamide]"
24,830 nM,"C[C@@H](NS(=O)(=O)CCCOCn1ccc(=O)[nH]c1=O)c1cccc(OC(F)(F)C(F)F)c1 [Example 51, (R)-3-((2,4-dioxo-3,4-dihydropyrimidin-1(2H)-yl)methoxy)-N-(1-(3-(1,1,2,2-tetrafluoroethoxy)phenyl)ethyl)propane-1-sulfonamide]"
25,510 nM,"C[C@@H](NS(=O)(=O)CCCOCn1ccc(=O)[nH]c1=O)c1cccc(OCC(C)(C)C)c1 [Example 52, (R)-3-((2,4-dioxo-3,4-dihydropyrimidin-1(2H)-yl)methoxy)-N-(1-(3-(neopentyloxy)phenyl)ethyl)propane-1-sulfonamide]"
26,230 nM,"C[C@@H](NS(=O)(=O)CCCOCn1ccc(=O)[nH]c1=O)c1cccc(OCC(F)(F)F)c1 [Example 53, (R)-3-((2,4-dioxo-3,4-dihydropyrimidin-1(2H)-yl)methoxy)-N-(1-(3-(2,2,2-trifluoroethoxy)phenyl)ethyl)propane-1-sulfonamide]"
27,230 nM,"C[C@@H](NS(=O)(=O)CCCOCn1ccc(=O)[nH]c1=O)c1ccc(F)c(OCC(F)(F)F)c1 [Example 54, (R)-3-((2,4-dioxo-3,4-dihydropyrimidin-1(2H)-yl)methoxy)-N-(1-(4-fluoro-3-(2,2,2-trifluoroethoxy)phenyl)ethyl)propane-1-sulfonamide]"
